Data on 34 compounds can be found in patent publication US9090651B2, “Helix 12 directed pharmaceutical products” (ENDORECHERCHE, INC., priority 2004, dated 2015).

Assay [1] deals with Shionogi mouse mammary carcinoma cells. Kind of assay: Androgenic/antiandrogenic activity on DHT-stimulated Shionogi cell growth. The format is cell-based. The conditions noted are these: Mus musculus.
The next assay deals with T1, Human Androgen Receptor (Homo sapiens, UniProt P10275).
T1 sequence (P10275 1-920): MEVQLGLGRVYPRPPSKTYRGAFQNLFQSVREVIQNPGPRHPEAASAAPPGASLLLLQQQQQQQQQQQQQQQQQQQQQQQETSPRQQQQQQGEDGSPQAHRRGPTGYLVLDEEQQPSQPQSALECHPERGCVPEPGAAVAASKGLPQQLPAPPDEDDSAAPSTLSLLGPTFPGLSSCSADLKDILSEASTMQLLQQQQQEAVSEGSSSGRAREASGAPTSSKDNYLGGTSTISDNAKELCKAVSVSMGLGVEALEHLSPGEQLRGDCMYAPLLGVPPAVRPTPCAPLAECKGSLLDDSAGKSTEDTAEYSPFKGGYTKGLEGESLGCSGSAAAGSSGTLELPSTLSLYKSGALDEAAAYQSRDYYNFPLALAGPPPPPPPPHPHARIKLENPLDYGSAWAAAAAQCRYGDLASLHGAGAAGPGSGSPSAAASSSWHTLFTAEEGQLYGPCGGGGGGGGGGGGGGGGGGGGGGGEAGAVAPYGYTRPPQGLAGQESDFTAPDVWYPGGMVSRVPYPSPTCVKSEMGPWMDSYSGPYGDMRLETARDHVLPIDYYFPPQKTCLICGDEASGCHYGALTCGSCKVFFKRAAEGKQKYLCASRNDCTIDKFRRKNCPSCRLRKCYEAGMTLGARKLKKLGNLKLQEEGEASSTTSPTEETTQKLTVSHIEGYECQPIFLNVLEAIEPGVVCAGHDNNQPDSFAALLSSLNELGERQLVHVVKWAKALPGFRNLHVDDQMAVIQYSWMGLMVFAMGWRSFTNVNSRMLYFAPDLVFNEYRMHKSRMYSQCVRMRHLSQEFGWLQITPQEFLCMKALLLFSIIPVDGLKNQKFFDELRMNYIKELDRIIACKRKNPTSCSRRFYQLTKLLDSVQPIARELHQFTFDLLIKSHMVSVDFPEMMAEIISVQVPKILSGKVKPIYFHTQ
Kind of assay: Androgen receptor binding assay (hydroxylapatite, [3H]R1881, cytosol of transfected HEK-293 cells). The conditions noted are these: % RBA=100×IC50 R1881/IC50 compound, transfected cells.

[2] abbreviates: read-out: Shionogi Antiandrogenic activity IC50 (nM), inhibition of DHT-stimulated Shionogi cell number.

Like-named read-outs stand apart in the source and are kept apart here.

For the compound `O=C1C=C2CCC3C(CC[C@@]4(CCOc5cccc(CN6CCCCC6)c5)C3CC[C@@H]4O)C2CC1` (some centres unmarked) [EM-6564], in assay [1] (setting [2]), the IC50 (commonly the concentration at which inhibition is half-maximal) worked out at 66 nM. On Human Androgen Receptor, the “Androgen Receptor Binding (%) Human RBA R1881 = 100” value is on record as 3.6%.
The like results for `CCCN(Cc1cccc(OCC[C@]23CCC4C(CCC5CC(=O)CC[C@@]54C)C2CC[C@@H]3O)c1)C1CCCC1` (some centres unmarked) [EM-6567] were, in that order, 5.5 nM and 126%.
On to `O=C1C=C2CCC3C(CC[C@@]4(CCOc5cccc(CNC6CCCCC6)c5)C3CC[C@@H]4O)C2CC1` (some centres unmarked) [EM-6577], for which the IC50 in assay [1] (setting [2]) is 57 nM. Also, at Human Androgen Receptor, the “Androgen Receptor Binding (%) Human RBA R1881 = 100” value amounted to 3.4%.
For `CCC(NC1CCOCC1)c1cccc(OCC[C@]23CCC4C(CCC5CC(=O)CC[C@@]54C)C2CC[C@@H]3O)c1` (some centres unmarked) [EM-6666], the half-inhibitory concentration (IC50) in assay [1] (setting [2]) was 0.16 nM. Moreover, the “Androgen Receptor Binding (%) Human RBA R1881 = 100” value on Human Androgen Receptor is on record as 211.3%.
Take `CCC(NC(C)CC(F)(F)F)c1cccc(OCC[C@]23CCC4C(CCC5CC(=O)CC[C@@]54C)C2CC[C@@H]3O)c1` (some centres unmarked) [EM-6700]: the 50% inhibitory concentration (IC50) in assay [1] (setting [2]) was found to be 49.9 nM. For the same compound, the “Androgen Receptor Binding (%) Human RBA R1881 = 100” value on Human Androgen Receptor was 670%.
On to `CC(C)(NCc1ccccc1)c1cccc(OCC[C@]23CCC4C(CCC5CC(=O)CC[C@@]54C)C2CC[C@@H]3O)c1` (some centres unmarked) [EM-6708], for which the concentration for half-maximal inhibition (IC50) in assay [1] (setting [2]) is 27.5 nM. Moreover, the “Androgen Receptor Binding (%) Human RBA R1881 = 100” value at Human Androgen Receptor is listed as 62%.
Regarding `CCCN(C1CC1)C(CC)c1cccc(OCC[C@]23CCC4C(CCC5CC(=O)CC[C@@]54C)C2CC[C@@H]3O)c1` (some centres unmarked) [EM-6735], the IC50 in assay [1] (setting [2]) came to 3.2 nM. Besides, the “Androgen Receptor Binding (%) Human RBA R1881 = 100” value on Human Androgen Receptor amounted to 2385%.
Consider `CCCC(NC1CCCCC1)c1cccc(OCC[C@]23CCC4C(CCC5CC(=O)CC[C@@]54C)C2CC[C@@H]3O)c1` (some centres unmarked) [EM-6737], for which, in assay [1] (setting [2]), the IC50 came to 1.6 nM. Also, the “Androgen Receptor Binding (%) Human RBA R1881 = 100” value at Human Androgen Receptor was found to be 292.5%.
Take `CCCC(NC1CCCC1)c1cccc(OCC[C@]23CCC4C(CCC5CC(=O)CC[C@@]54C)C2CC[C@@H]3O)c1` (some centres unmarked) [EM-6738]: the IC50 in assay [1] (setting [2]) amounted to 1.7 nM. Further, the “Androgen Receptor Binding (%) Human RBA R1881 = 100” value at Human Androgen Receptor turned out to be 174.2%.
Consider `CCCC(NC1CCCC1)c1cccc(OCC[C@]23CCC4C(CCC5CC(=O)CC[C@@]54C)C2CCC3=O)c1` (some centres unmarked) [EM-6739], for which the half-maximal inhibitory concentration (IC50) in assay [1] (setting [2]) amounted to 2.4 nM. Also, the “Androgen Receptor Binding (%) Human RBA R1881 = 100” value at Human Androgen Receptor was determined as 132.5%.
`CC(C)(c1cccc(OCC[C@]23CCC4C(CCC5CC(=O)CC[C@@]54C)C2CC[C@@H]3O)c1)N1CCCCC1` (some centres unmarked) [EM-6740]: the IC50 in assay [1] (setting [2]) was 15 nM. In addition, the “Androgen Receptor Binding (%) Human RBA R1881 = 100” value on Human Androgen Receptor was determined as 42.5%.
For `CCC(NC1CCOCC1)c1cccc(OCC[C@]23CCC4C(CCC5=CC(=O)CC[C@@]54C)C2CCC3O)c1` (some centres unmarked) [EM-6765] the same measures were 0.2 nM and 34.6%.
The like results for `CCC(NC1CCOCC1)c1cccc(OCC[C@]23CCC4C(CCC5=CC(=O)CC[C@@]54C)C2CCC3(C)O)c1` (some centres unmarked) [EM-6766] were, in that order, 0.5 nM and 55.9%.
Turning to `CCC(NC1CCOCC1)c1cccc(OCC[C@]23CCC4C(CCC5CC=CC[C@@]54C)C2CCC3O)c1` (some centres unmarked) [EM-6791], the IC50 in assay [1] (setting [2]) worked out at 45.5 nM. In addition, the “Androgen Receptor Binding (%) Human RBA R1881 = 100” value on Human Androgen Receptor came to 50.2%.
With `CCC(NC1CCS(=O)(=O)CC1)c1cccc(OCC[C@]23CCC4C(CCC5CC(=O)CC[C@@]54C)C2CCC3O)c1` (some centres unmarked) [EM-6836], the IC50 in assay [1] (setting [2]) came to 2.4 nM. Besides, the “Androgen Receptor Binding (%) Human RBA R1881 = 100” value on Human Androgen Receptor is on record as 62%.
For `CCC(NC1CCSCC1)c1cccc(OCC[C@]23CCC4C(CCC5CC(=O)CC[C@@]54C)C2CCC3O)c1` (some centres unmarked) [EM-6844] the same measures were 2.1 nM and 506%.
As for `O=C1C=C2CCC3C(CC[C@@]4(CCOc5cccc(C[S+]([O-])c6ccccc6)c5)C3CC[C@@H]4O)C2CC1` (some centres unmarked) [EM-6847], the IC50 in assay [1] (setting [2]) came out at 46 nM. For the same compound, the “Androgen Receptor Binding (%) Human RBA R1881 = 100” value on Human Androgen Receptor was 3.2%.
The like results for `C[C@]12CCC(=O)CC1CCC1C2CC[C@]2(CCOc3cccc(CNc4ccncc4)c3)C(O)CCC12` (some centres unmarked) [EM-6856] were, in that order, 32 nM and 6%.
For `CCC(Nc1ccncc1)c1cccc(OCC[C@]23CCC4C(CCC5CC(=O)CC[C@@]54C)C2CCC3O)c1` (some centres unmarked) [EM-6857] the same measures were 63 nM and 5%.
As to `CCCCS(=O)(=O)Cc1cccc(OCC[C@]23CCC4C5CCC(=O)C=C5CCC4C2CC[C@@H]3O)c1` (some centres unmarked) [EM-6861], the IC50 in assay [1] (setting [2]) came to 32 nM. Besides, the “Androgen Receptor Binding (%) Human RBA R1881 = 100” value on Human Androgen Receptor was found to be 3.0%.
For `CCC(NC1CCOCC1)c1cccc(OCC[C@]23CCC4C(CCC5Cc6n[nH]cc6C[C@@]54C)C2CCC3O)c1` (some centres unmarked) [EM-6867] the same measures were 4.4 nM and 11.3%.
Consider `CCCC(NC(CC)CC)c1cccc(OCC[C@]23CCC4C(CCC5CCOC[C@@]54C)C2CCC3O)c1` (some centres unmarked) [EM-6876], for which the IC50 in assay [1] (inhibition of DHT-stimulated Shionogi cell number, read-out: Shionogi Antiandrogenic activity IC50) came to 16 nM. Moreover, at Human Androgen Receptor, the “Androgen Receptor Binding (%) Human RBA R1881 = 100” value is recorded as 44.4%.
Regarding `CCCCC(NC1CCCCC1)c1cccc(OCC[C@]23CCC4C(CCC5CC(=O)CC[C@@]54C)C2CCC3=O)c1` (some centres unmarked) [EM-6894], in assay [1] (setting [2]), the IC50 amounted to 4.1 nM. Besides, the “Androgen Receptor Binding (%) Human RBA R1881 = 100” value at Human Androgen Receptor worked out at 129.7%.
The like results for `CCCCC(NC1CCCCC1)c1cccc(OCC[C@]23CCC4C(CCC5CC(=O)CC[C@@]54C)C2CCC3O)c1` (some centres unmarked) [EM-6895] were, in that order, 4.2 nM and 115.5%.
For the compound `CCCCC(NC(CC)CC)c1cccc(OCC[C@]23CCC4C(CCC5CC(=O)CC[C@@]54C)C2CCC3=O)c1` (some centres unmarked) [EM-6896], the IC50 in assay [1] (setting [2]) worked out at 3.2 nM. In addition, at Human Androgen Receptor, the “Androgen Receptor Binding (%) Human RBA R1881 = 100” value came to 314.6%.
For the compound `CC(C)CNC1(c2cccc(OCC[C@]34CCC5C(CCC6CC(=O)CC[C@@]65C)C3CCC4O)c2)CC1` (some centres unmarked) [EM-6905], in assay [1] (setting [2]), the 50% inhibitory concentration (IC50) was 4.4 nM. The “Androgen Receptor Binding (%) Human RBA R1881 = 100” value at Human Androgen Receptor worked out at 274.8%.
On to `CCCCC(NC(CC)CC)c1cccc(OCC[C@]23CCC4C(CCC5CC(=O)CC[C@@]54C)C2CCC3O)c1` (some centres unmarked) [EM-6906], for which, in assay [1] (setting [2]), the IC50 is 0.5 nM. The “Androgen Receptor Binding (%) Human RBA R1881 = 100” value on Human Androgen Receptor is listed as 372%.
The like results for `CCC(NC1CCOCC1)c1cccc(OCC[C@]23CCC4C(CCC5Cc6nocc6C[C@@]54C)C2CCC3O)c1` (some centres unmarked) [EM-6908] were, in that order, 7.4 nM and 13%.
Regarding `CCC(NC(C)C)c1cccc(OCC[C@]23CCC4C(CCC5=CC(=O)CC[C@@]54C)C2CC[C@@H]3O)c1` (some centres unmarked) [EM-6960], the IC50 in assay [1] (setting [2]) is under 0.1 nM. Also, the “Androgen Receptor Binding (%) Human RBA R1881 = 100” value at Human Androgen Receptor is reported as 147%.
Take `COCC(NC1CCCCC1)c1cccc(OCC[C@]23CCC4C(CCC5CC(=O)CC[C@@]54C)C2CCC3O)c1` (some centres unmarked) [EM-6972]: the concentration for half-maximal inhibition (IC50) in assay [1] (setting [2]) is 1.2 nM. In addition, the “Androgen Receptor Binding (%) Human RBA R1881 = 100” value at Human Androgen Receptor is listed as 151%.
On to `CCC(NC1CCOCC1)c1cccc(OCC[C@]23CCC4C(CCC5CC(F)=CC[C@@]54C)C2CCC3O)c1` (some centres unmarked) [EM-6996], for which the IC50 in assay [1] (setting [2]) worked out at 37.3 nM. At Human Androgen Receptor, the “Androgen Receptor Binding (%) Human RBA R1881 = 100” value is on record as 32%.
Take `CCC(CC)CNC(CC)(CC)c1cccc(OCC[C@]23CCC4C(CCC5CC(=O)CC[C@@]54C)C2CCC3O)c1` (some centres unmarked) [EM-7001]: the half-inhibitory concentration (IC50) in assay [1] (setting [2]) came to 17 nM. For the same compound, the “Androgen Receptor Binding (%) Human RBA R1881 = 100” value on Human Androgen Receptor was 1981%.
In the case of `CCC(CC)CNC(CC)(CC)c1cccc(OCC[C@]23CCC4C(CCC5CC(=O)CC[C@@]54C)C2CCC3=O)c1` (some centres unmarked) [EM-7002], the concentration for half-maximal inhibition (IC50) in assay [1] (setting [2]) was 23 nM. Moreover, at Human Androgen Receptor, the “Androgen Receptor Binding (%) Human RBA R1881 = 100” value was 2088%.
As for `CC[C@H](NC1CCCCC1)c1cccc(OCC[C@]23CCC4C(CCC5CC(=O)CC[C@@]54C)C2CCC3O)c1` (some centres unmarked) [EM-7055], the IC50 in assay [1] (setting [2]) came out at 0.64 nM. Besides, the “Androgen Receptor Binding (%) Human RBA R1881 = 100” value on Human Androgen Receptor was 242%.
